How the values were obtained:
[1] = test system: human epidermoid tumors (A431); test: In vivo inhibition of the growth of human epidermoid tumors (A431) in mice; settings: for inhibition of tumor growth in vivo (in words): summary of Tables 4-7
Procedure: BALB/c nu/nu female mice (Charles River, Wilmington, Mass.) were used in the in vivo standard pharmacological test procedures. […] When tumors attained a mass of between 100 and 150 mg, the mice were randomized into treatment groups (day zero). Mice were treated IP once a day either on days 1, 5, and 9 or on days 1 through 10 post staging with doses of either 80, 40 or 20 mg/kg/dose of the compound to be evaluated in 0.2% Klucel. Control animals received no drug. Tumor mass was determined every 7 days [(length×width^2)/2] for 28 days post staging. Relative tumor growth (Mean tumor mass on day 7, 14, 21, and 28 divided by the mean tumor mass on day zero) is determined for each treatment group. The % T/C (Tumor/Control) is determined by dividing the relative tumor growth of the treated group by the relative tumor growth of the placebo group and multiplying by 100.

NHEK cells = test: Inhibition of cell growth, [3H]-thymidine incorporation, NHEK; format: cell-based; settings: Homo sapiens, read-out: IC50, NHEK
Procedure: Representative compounds of this invention were evaluated for their ability to inhibit the growth of the cell lines described below in vitro. The inhibition is quantitated by measuring the decrease in the incorporation of radio-labeled thymidine when the cells are grown in the presence of the inhibitor. A431 and SKBR3 cell lines are obtained from American Type Culture Collection, Rockville, Md. […] NHEK cells are obtained from Clonetics (San Diego, Calif.). Cells were routinely grown in a humidified incubator in 5% CO2 in air.
Cells were seeded at 10,000 cells/well in 96 well plates in complete media and allowed to grow to log phase. […] After overnight incubation in low serum (or EGF lacking) media, the compounds to be evaluated were added and cells remained in the presence of compounds for 48 to 72 hours. Media with test compound was then removed and complete media was added back. The cells were allowed to grow for 18 hours. This is followed by incubation in [^3 H]thymidine (1mCi/ml in serum/EGF media) for 4 hours. Cells were lysed in 0.5M NaOH for at least 30 min at 37° C. and radioactivity analyzed.
The cell growth inhibition data is provided below in TABLE 3. […] The % inhibition of the compound evaluated was determined for at least three different concentrations and the IC50 value evaluated from the dose response curve.
CPM(control) is in units of counts per minute and is a number expressing the amount of [^3 H]thymidine incorporated onto the DNA when cells are grown in the absence of test compound as measured by liquid scintillation counting.

[2] = Table 6, 20 mg/kg IP, day 1 through 10
[3] = Table 6, 20 mg/kg IP, day 1 through 10, * p < 0.01
[4] = Table 6, 80 mg/kg IP, days 1, 5, and 9
[5] = Table 6, 80 mg/kg IP, days 1, 5, and 9, * p < 0.01
[6] = Table 5, 20 mg/kg/dose IP, days 1 through 15
[7] = Table 7, 20 mg/kg IP, days through 10
[8] = Table 7, 80 mg/kg IP, days 1, 5, and 9

C=CC(=O)Nc1cc2c(Nc3cccc(C)c3)ncnc2cc1F [Comparator A, N-[4-[(3-methylphenyl)amino]-6-quinazolinyl]-7-fluoro-2-propenamide, reference compound]
activity relative to the compound of Example 9 (in words) ([1]; A431 tumors in mice, Tables 6 and 7): substantially less active than the compound of Example 9
inhibition of tumor growth in vivo (in words) ([1]; A431 tumors in mice): failed to significantly reduce tumor growth at both doses tested
RTG Day 7 [1, 2]: 4.82
RTG Day 14 [1, 2]: 7.36
RTG Day 21 [1, 2]: 8.75
S/T (No. Survivors/No. Treated on Day +21) [1, 2]: 9/10
% T/C Day 7 [1, 3]: 87%
% T/C Day 14 [1, 3]: 63%
% T/C Day 21 [1, 3]: 56%
RTG Day 7 [1, 4]: 3.39
RTG Day 14 [1, 4]: 5.60
RTG Day 21 [1, 4]: 7.68
S/T (No. Survivors/No. Treated on Day +21) [1, 4]: 10/10
% T/C Day 7 [1, 5]: 61%
% T/C Day 14 [1, 5]: 48%
% T/C Day 21 [1, 5]: 48%

COc1cc2ncnc(Nc3cccc(Br)c3)c2cc1OC [N-(3-bromophenyl)-6,7-dimethoxy-4-quinazolinamine, reference compound]
inhibition of tumor growth in vivo (in words) ([1]; A431 tumors in mice): devoid of antineoplastic activity
% T/C Day 7 [1, 6]: 95%
% T/C Day 14 [1, 6]: 116%
% T/C Day 21 [1, 6]: 128%
% T/C Day 28 [1, 6]: 140%
RTG Day 7 [1, 6]: 3.03
RTG Day 14 [1, 6]: 6.58
RTG Day 21 [1, 6]: 10.5
RTG Day 28 [1, 6]: 14.47
S/T (No. Survivors/No. Treated on Day +28) [1, 6]: 15/15

O=C(O)/C=C\C(=O)Nc1ccc2ncnc(Nc3cccc(Br)c3)c2c1 [Example 4, 4-[[4-[(3-Bromophenyl)amino]-6-quinazolinyl]amino]-4-oxo-(Z)-2-butenoic acid]
IC50 (NHEK cells): 170 nM

CCCC(=O)Nc1ccc2ncnc(Nc3cccc(Br)c3)c2c1 [Comparator B, N-[4-[(3-bromophenyl)amino]-6-quinazolinyl]-butanamide, reference compound]
inhibition of tumor growth in vivo (in words) ([1]; A431 tumors in mice): failed to significantly reduce tumor growth at both doses tested
RTG Day 7 [1, 7]: 2.90
RTG Day 14 [1, 7]: 4.19
RTG Day 21 [1, 7]: 5.62
RTG Day 28 [1, 7]: 8.04
S/T (No. Survivors/No. Treated on Day +28) [1, 7]: 5/5
RTG Day 7 [1, 8]: 3.37
RTG Day 14 [1, 8]: 5.43
RTG Day 21 [1, 8]: 6.21
RTG Day 28 [1, 8]: 10.26
S/T (No. Survivors/No. Treated on Day +28) [1, 8]: 5/5

— US5760041A, “4-aminoquinazoline EGFR Inhibitors” (American Cyanamid Company, priority 1997, dated 1998)
